Test results published in patent US10899738B2 (THE REGENTS OF THE UNIVERSITY OF MICHIGAN, priority 2016, dated 2021).
Where two headings read alike, the source gives them in different places.

Columns and labels:
[1] = biological target: menin protein (Homo sapiens (Human), UniProt O00255); test: biochemical; assay type: binding; conditions: FP competitive binding; menin protein 4 nM, FAM-MM2 probe 2 nM; read-out: Menin Binding Affinity IC50
Method in brief: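 Test compounds displaced FAM-MM2 (2 nM) from 4 nM menin after 30 min equilibration at room temperature in PBS buffer containing bovine γ-globulin, 4% DMSO and Triton X-100. Binding was followed by fluorescence polarization. Competition curves were fitted by nonlinear regression to give IC50 and Ki.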

[2] = Cell growth inhibition, CellTiter-Glo Luminescent Cell Viability Assay; assay type: cell-based
Description: Cell growth inhibitory activity of representative menin inhibitors was determined using CellTiter-Glo® Luminescent Cell Viability Assay. Cells were seeded in 384-well white opaque cell culture plates at a density of 2,000 cells/well with serially diluted compounds and incubated at 37° C. in an atmosphere of 95% air and 5% CO2 for 4 days. Cell viability was determined using the CellTiter-Glo® Luminescent Cell Viability Assay Kit (Promega, Madison, Wis.) according to the manufacture's instruction. Briefly, a volume of CellTiter-Glo® Reagent equal to the volume of cell culture medium was added to each well, and then the plates were incubated at room temperature for 10-20 minutes. The luminescent signal was measured using a Tecan Infinite M1000 multimode microplate reader (Tecan, Morrisville, N.C.). The half maximal inhibitory concentration (IC50) was calculated using the GraphPad Prism 5 software (GraphPad Software, La Jolla, Calif.).

[3] = MOLM-13, 96 h, read-out: Cell Growth Inhibition IC50 (μM) MOLM13, MOLM13 cells, 4 days, CellTiter-Glo
[4] = MV4-11, 96 h, read-out: Cell Growth Inhibition IC50 (μM) MV4, 11, MV4, 11 cells, 4 days, CellTiter-Glo
[5] = MOLM-13, 96 h, MOLM13 cells, 4 days, CellTiter-Glo, read-out: Cell Growth Inhibition IC50 (μM) MOLM13
[6] = MV4-11, 96 h, MV4, 11 cells, 4 days, CellTiter-Glo, read-out: Cell Growth Inhibition IC50 (μM) MV4, 11

menin protein, sequence (O00255 whole entry): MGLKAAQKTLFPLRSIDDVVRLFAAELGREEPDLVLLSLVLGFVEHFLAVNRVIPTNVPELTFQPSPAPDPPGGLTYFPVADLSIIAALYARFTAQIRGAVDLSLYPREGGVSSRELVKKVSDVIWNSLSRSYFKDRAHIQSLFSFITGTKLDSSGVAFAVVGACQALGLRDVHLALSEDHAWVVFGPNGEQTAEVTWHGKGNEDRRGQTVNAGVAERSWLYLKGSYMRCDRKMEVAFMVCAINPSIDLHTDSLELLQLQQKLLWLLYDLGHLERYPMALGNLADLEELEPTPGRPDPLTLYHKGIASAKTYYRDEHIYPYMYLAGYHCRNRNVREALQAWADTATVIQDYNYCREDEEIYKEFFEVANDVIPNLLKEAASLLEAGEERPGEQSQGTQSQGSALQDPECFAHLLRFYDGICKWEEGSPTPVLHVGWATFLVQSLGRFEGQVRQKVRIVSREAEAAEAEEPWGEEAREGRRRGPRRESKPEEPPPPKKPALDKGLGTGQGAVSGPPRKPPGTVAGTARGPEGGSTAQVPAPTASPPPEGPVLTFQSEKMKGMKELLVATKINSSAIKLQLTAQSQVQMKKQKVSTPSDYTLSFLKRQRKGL

SMILES | IC50 [1] [nM] | IC50 [2, 3] [µM] | IC50 [2, 4] [µM] | IC50 [2, 5] [µM] | IC50 [2, 6] [µM] | IC50 ([2]; read-out: Cell Growth Inhibition IC50 (μM) MOLM13, MOLM13 cells, 4 days, CellTiter-Glo) [µM] | IC50 ([2]; read-out: Cell Growth Inhibition IC50 (μM) MV4, 11, MV4, 11 cells, 4 days, CellTiter-Glo) [µM]
CNC(=O)O[C@@H]1CCC[C@H]1[C@@](C#N)(c1ccccc1)C1CCN(CC2CN(c3ccc(S(=O)(=O)c4ccncc4)cc3)C2)CC1 (mixture of isomers) [compound 354, rac-(1R,2S)-2-((R)-cyano(phenyl)(1-((1-(4-(pyridin-4-ylsulfonyl)phenyl)azetidin-3-yl)methyl)piperidin-4-yl)methyl)cyclopentyl methylcarbamate] | 62 | 4.7 | 1.3 | – | – | – | –
CCN1Cc2ccccc2C(C2CCCC2)(C2CCN(CC3CN(c4ccc(S(=O)(=O)c5ccncc5C)cc4)C3)CC2)C1 (stereo not drawn) [compound 153, 4-cyclopentyl-2-ethyl-4-(1-((1-(4-((3-methylpyridin-4-yl)sulfonyl)phenyl)azetidin-3-yl)methyl)piperidin-4-yl)-1,2,3,4-tetrahydroisoquinoline] | 7 | – | – | 0.77 | 0.79 | – | –
CNC(=O)O[C@H]1CCC[C@@H]1C(C#N)(c1ccccc1)C1CCN(CC2CN(c3ccc(S(=O)(=O)c4cnn(C)c4)cc3)C2)CC1 (mixture of isomers) [compound 240, rac-(1S,2R)-2-(cyano(1-((1-(4-((1-methyl-1H-pyrazol-4-yl)sulfonyl)phenyl)azetidin-3-yl)methyl)piperidin-4-yl)(phenyl)methyl) cyclopentyl methylcarbamate] | 9 | 0.54 | 0.2 | – | – | – | –
CCN1Cc2ccccc2C(C2CCCC2)(C2CCN(CC3CN(c4ccc(S(=O)(=O)c5ccnc(C(F)(F)F)c5)cc4)C3)CC2)C1 (stereo not drawn) [compound 157, 4-cyclopentyl-2-ethyl-4-(1-((1-(4-((2-(trifluoromethyl)pyridin-4-yl)sulfonyl)phenyl)azetidin-3-yl)methyl)piperidin-4-yl)-1,2,3,4-tetrahydroisoquinoline] | 16 | – | – | 4.4 | 1.8 | – | –
COC(=O)N[C@H]1CCC[C@@H]1C(C#N)(c1ccccc1)C1CCN(CC2CN(c3ccc(S(=O)(=O)c4ccncc4)cc3)C2)CC1 (mixture of isomers) [Cpd. No. 345, methyl (rac-(1S,2R)-2-(cyano(phenyl)(1-((1-(4-(pyridin-4-ylsulfonyl)phenyl)azetidin-3-yl)methyl)piperidin-4-yl)methyl)cyclopentyl)carbamate] | 11 | 0.71 | 0.54 | – | – | – | –
CC(=O)N[C@H]1CCC[C@@H]1C(C#N)(c1ccccc1)C1CCN(CC2CN(c3ccc(S(=O)(=O)C4CC4)cc3)C2)CC1 (mixture of isomers) [compound 281, rac-N-((1S,2R)-2-(cyano(1-((1-(4-(cyclopropylsulfonyl)phenyl)azetidin-3-yl)methyl)piperidin-4-yl)(phenyl)methyl)cyclopentyl) acetamide] | 29 | 2.35 | 0.55 | – | – | – | –
CCN1Cc2ccccc2C(C2CCCC2)(C2CCN(CC3CN(c4ccc(S(=O)(=O)C5CC5)cc4Cl)C3)CC2)C1 (stereo not drawn) [compound 144, 4-(1-((1-(2-chloro-4-(cyclopropylsulfonyl)phenyl)azetidin-3-yl)methyl)piperidin-4-yl)-4-cyclopentyl-2-ethyl-1,2,3,4-tetrahydroisoquinoline] | 23 | – | – | 4 ± 0.7 | 1.6 ± 1.1 | – | –
CC(=O)N[C@@H]1CCC[C@H]1C1(C2CCN(CC3CN(c4ccc(S(=O)(=O)c5ccncc5)cc4)C3)CC2)CN(C)Cc2ccccc21 (mixture of isomers) [compound 272, rac-N-((1R,2S)-2-(2-methyl-4-(1-((1-(4-(pyridin-4-ylsulfonyl)phenyl)azetidin-3-yl)methyl)piperidin-4-yl)-1,2,3,4-tetrahydroisoquinolin-4-yl)cyclopentyl)acetamide] | 180 | 2.97 | 4.29 ± 1.45 | – | – | – | –
CNC(=O)O[C@H]1CCC[C@@H]1C(Cn1ccnc1)(c1ccccc1)C1CCN(CC2CN(c3ccc(S(=O)(=O)c4ccc(C(=O)O)cc4)cc3)C2)CC1 (mixture of isomers) [compound 363, rac-4-((4-(3-((4-(2-(1H-imidazol-1-yl)-1-((1R,2S)-2-((methylcarbamoyl)oxy)cyclopentyl)-1-phenylethyl)piperidin-1-yl)methyl)azetidin-1-yl)phenyl)sulfonyl)benzoic acid] | 27 | – | – | – | – | 2.64 | 0.56
CNC(=O)N[C@H]1CCC[C@@H]1C(CN)(c1ccccc1)C1CCN(CC2CN(c3ccc(S(=O)(=O)c4ccccc4)cc3)C2)CC1 (mixture of isomers) [compound 321, rac-1-((1S,2R)-2-(2-amino-1-phenyl-1-(1-((1-(4-(phenylsulfonyl)phenyl)azetidin-3-yl)methyl)piperidin-4-yl)ethyl)cyclopentyl)-3-methylurea] | 4 | 1.25 | 0.73 | – | – | – | –
COC(=O)N[C@H]1CCC[C@@H]1C(C#N)(c1ccccc1)C1CCN(CCC#Cc2ccc(C#N)cc2)CC1 (mixture of isomers) [compound 404, methyl rac-((1S,2R)-2-(cyano(1-(4-(4-cyanophenyl)but-3-yn-1-yl)piperidin-4-yl)(phenyl)methyl)cyclopentyl) carbamate] | 212 | > 10 | > 10 | – | – | – | –
CCN1Cc2ccccc2C(C2CCCC2)(C2CCN(CC3CN(c4ccc(S(=O)(=O)CC)cc4)C3)CC2)C1 (stereo not drawn) [compound 136, 4-cyclopentyl-2-ethyl-4-(1-((1-(4-(ethylsulfonyl)phenyl)azetidin-3-yl)methyl)piperidin-4-yl)-1,2,3,4-tetrahydroisoquinoline] | 9 | – | – | 3.8 | 1.2 | – | –
O=S(=O)(c1ccccc1)c1ccc(N2CC(CN3CCC(C(CN4CCCC4)(c4ccccc4)[C@H]4C=CCC4)CC3)C2)cc1 (stereo partly drawn) [compound 356, 4-(1-((R)-cyclopent-2-en-1-yl)-1-phenyl-2-(pyrrolidin-1-yl)ethyl)-1-((1-(4-(phenylsulfonyl)phenyl)azetidin-3-yl)methyl)piperidine] | 22 | – | – | 0.69 | 0.71 | – | –
CCN1Cc2ccccc2C(C2CCCC2)(C2CCN(CC3CN(c4ccc(S(=O)(=O)C5CCCC5)cc4)C3)CC2)C1 (stereo not drawn) [compound 142, 4-cyclopentyl-4-(1-((1-(4-(cyclopentylsulfonyl)phenyl)azetidin-3-yl)methyl)piperidin-4-yl)-2-ethyl-1,2,3,4-tetrahydroisoquinoline] | 8 | – | – | 3.2 ± 0.3 | 0.979 ± 0.335 | – | –
O=S(=O)(c1ccc(N2CC(CN3CCC(C4(C5CCCC5)NCCc5ccccc54)CC3)C2)cc1)C1CCCCC1 (stereo not drawn) [compound 92, 1-(1-((1-(4-(cyclohexylsulfonyl)phenyl)azetidin-3-yl)methyl)piperidin-4-yl)-1-cyclopentyl-1,2,3,4-tetrahydroisoquinoline] | 19 | – | – | 1.6 ± 0.1 | 0.961 ± 0.384 | – | –
CNC(=O)O[C@H]1CCC[C@@H]1C(Cn1ccnc1)(c1ccccc1)C1CCN(CC2CN(c3ccc(Cl)cc3)C2)CC1 (mixture of isomers) [compound 407, rac-(1S,2R)-2-(1-(1-((1-(4-chlorophenyl)azetidin-3-yl)methyl)piperidin-4-yl)-2-(1H-imidazol-1-yl)-1-phenylethyl)cyclopentyl methylcarbamate] | 5 | 0.69 ± 0.089 | 0.41 ± 0.28 | – | – | – | –
CNC(=O)O[C@H]1CCC[C@@H]1C(C#N)(c1ccccc1)C1CCN(CC2(F)CN(c3ccc(S(=O)(=O)c4cnn(C)c4)cc3)C2)CC1 (mixture of isomers) [compound 369, rac-(1S,2R)-2-(cyano(1-((3-fluoro-1-(4-((1-methyl-1H-pyrazol-4-yl)sulfonyl)phenyl)azetidin-3-yl)methyl)piperidin-4-yl)(phenyl)methyl)cyclopentyl methylcarbamate] | 68 | 7.71 | 3.5 | – | – | – | –
COC(=O)N[C@H]1CCC[C@@H]1C(C#N)(c1ccccc1)C1CCN(CC2CN(c3ccc(S(=O)(=O)c4ccc(F)cc4)cc3)C2)CC1 (mixture of isomers) [compound 394, methyl rac((1S,2R)-2-(cyano(1-((1-(4-((4-fluorophenyl)sulfonyl)phenyl)azetidin-3-yl)methyl)piperidin-4-yl)(phenyl)methyl)cyclopentyl) carbamate] | 15 | 1.94 | 0.43 | – | – | – | –
COC(=O)N[C@H]1CCC[C@@H]1C(C#N)(c1ccccc1)C1CCN(CC2CN(c3ccc(S(=O)(=O)C4CC5CCC4C5)cc3)C2)CC1 (mixture of isomers) [compound 396, methyl rac-((1S,2R)-2-((1-((1-(4-(bicyclo[2.2.1]heptan-2-ylsulfonyl)phenyl)azetidin-3-yl)methyl)piperidin-4-yl)(cyano)(phenyl)methyl)cyclopentyl)carbamate] | 12 | 1.46 | 0.46 | – | – | – | –
